Active and inactive are the calls of the source. The calls are words filed in the database; no cut-off is given here.
Experiments:
[1] = target: AMP-activated protein kinase, AMPK (Homo sapiens) (UniProt P54646+O43741+P54619+Q9UGJ0+Q9Y478+Q13131+Q9UGI9); assay: Inhibition of AMPK (unknown origin) at 500 nM relative to control; format: protein-complex assay
A549 = assay: Antiproliferative activity against human A549 cells assessed as reduction in cell viability incubated at 20 uM for 72 hrs by MTT assay relative to control; format: functional
[2] = target: Cyclin-dependent kinase 2 (Homo sapiens) (UniProt P24941); assay: Inhibition of CDK2 (unknown origin) at 500 nM relative to control
[3] = target: T1, MAP kinase-interacting serine/threonine-protein kinase 1/2 (Homo sapiens) (UniProt Q9HBH9+Q9BUB5); assay: Inhibition of MNK1/MNK2 in […] cells assessed as reduction in eIF4E level at 0.25 to 1 incubated for 24 hrs by Western blot analysis; format: cell-based; details: dose microM 0.25-1, time 24.0 hrs
[4] = target: T2, MAP kinase-interacting serine/threonine-protein kinase 1 (Homo sapiens, UniProt Q9BUB5); assay: Inhibition of MNK1 (unknown origin) at 500 nM relative to control
Target sequence in this assay (Q9BUB5 whole entry, looked up): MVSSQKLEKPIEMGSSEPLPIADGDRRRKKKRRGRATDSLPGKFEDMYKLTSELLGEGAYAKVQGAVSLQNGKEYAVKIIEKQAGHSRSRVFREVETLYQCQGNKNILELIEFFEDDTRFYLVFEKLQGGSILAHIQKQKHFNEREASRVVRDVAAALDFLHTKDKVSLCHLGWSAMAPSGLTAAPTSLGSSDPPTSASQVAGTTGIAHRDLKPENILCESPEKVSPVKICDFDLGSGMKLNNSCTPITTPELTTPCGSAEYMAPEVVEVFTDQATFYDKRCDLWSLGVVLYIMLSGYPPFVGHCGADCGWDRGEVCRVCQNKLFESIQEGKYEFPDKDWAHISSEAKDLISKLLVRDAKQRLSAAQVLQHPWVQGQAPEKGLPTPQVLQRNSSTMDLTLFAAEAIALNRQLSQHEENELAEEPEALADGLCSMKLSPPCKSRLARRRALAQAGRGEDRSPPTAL

[5] = target: Tyrosine-protein kinase JAK1 (Homo sapiens) (UniProt P23458); assay: Inhibition of JAK1 (unknown origin) at 500 nM relative to control
CT26 = assay: Antitumor activity against […] cells xenografted in BALB/c mouse assessed as tumor growth inhibition dosed ip for 14 days; format: functional, organism-based; details: time 14.0 day
TMD8 = assay: Antiproliferative activity against human TMD8 cells assessed as reduction in cell viability incubated for 72 hrs by MTT assay; format: functional, cell-based; details: TMD8, 72 h
[6] = Antiproliferative activity against […] cells assessed as reduction in cell viability at 20 uM incubated for 72 hrs by MTT assay relative to control; format: functional, Mus musculus
[7] = target: T1, MAP kinase-interacting serine/threonine-protein kinase 1/2 (Homo sapiens); assay: Inhibition of MNK1/MNK2 in […] cells assessed as reduction in eIF4E phosphorylation incubated for 24 hrs by Western blot analysis; format: cell-based
[8] = target: Receptor-type tyrosine-protein kinase FLT3 (Homo sapiens) (UniProt P36888); assay: Inhibition of FLT3 (unknown origin) at 500 nM relative to control
HCT-116 = assay: Antiproliferative activity against human HCT-116 cells assessed as reduction in cell viability at 20 uM incubated for 72 hrs by MTT assay relative to control; format: functional
[9] = target: Tyrosine-protein kinase BTK (Homo sapiens) (UniProt Q06187); assay: Inhibition of BTK (unknown origin) at 500 nM relative to control
[10] = Antitumor activity against […] cells xenografted in BALB/c mouse assessed as tumor growth inhibition at 20 mg/kg, ip administered for 14 days relative to control; format: functional; details: 336 h, time 14 day, read-out: TGI
[11] = target: T2, MAP kinase-interacting serine/threonine-protein kinase 1; assay: (§1) Inhibition of recombinant human N-terminal DYKDDDDK-tagged MNK1(1 to 424 residues) expressed in baculovirus expression system using TATKSGSTTKNR as substrate preincubated for 10 mins followed by ATP addition and measured after 40 mins by luminescence based assay
Target sequence in this assay (Q9BUB5 whole entry): as the sequence (Q9BUB5 whole entry, looked up) above

[12] = target: T3, Interleukin-1 receptor-associated kinase 4 (Homo sapiens) (UniProt Q9NWZ3); assay: Inhibition of IRAK4 (unknown origin) at 500 nM relative to control
T3 sequence (whole entry): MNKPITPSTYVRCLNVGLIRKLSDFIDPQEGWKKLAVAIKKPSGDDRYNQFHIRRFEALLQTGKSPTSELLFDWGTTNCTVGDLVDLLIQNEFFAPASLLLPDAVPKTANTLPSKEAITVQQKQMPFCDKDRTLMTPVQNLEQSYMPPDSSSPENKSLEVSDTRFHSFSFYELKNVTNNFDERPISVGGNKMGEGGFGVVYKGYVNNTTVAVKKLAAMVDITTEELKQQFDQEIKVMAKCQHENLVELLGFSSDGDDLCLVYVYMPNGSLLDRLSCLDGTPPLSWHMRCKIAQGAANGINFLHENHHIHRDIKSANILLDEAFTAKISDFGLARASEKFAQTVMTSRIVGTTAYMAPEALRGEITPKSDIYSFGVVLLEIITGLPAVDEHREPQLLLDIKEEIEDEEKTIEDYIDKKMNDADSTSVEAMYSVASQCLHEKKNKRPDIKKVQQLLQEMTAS

[13] = target: T4, MAP kinase-interacting serine/threonine-protein kinase 2 (Homo sapiens, UniProt Q9HBH9); assay: (§2) Inhibition of recombinant human N-terminal GST-tagged MNK2 (1 to 465 residues) expressed in baculovirus expression system using TATKSGSTTKNR as substrate preincubated for 10 mins followed by ATP addition and measured after 40 mins by luminescence based assay
Target sequence in this assay (Q9HBH9 whole entry, the tested form may be a part): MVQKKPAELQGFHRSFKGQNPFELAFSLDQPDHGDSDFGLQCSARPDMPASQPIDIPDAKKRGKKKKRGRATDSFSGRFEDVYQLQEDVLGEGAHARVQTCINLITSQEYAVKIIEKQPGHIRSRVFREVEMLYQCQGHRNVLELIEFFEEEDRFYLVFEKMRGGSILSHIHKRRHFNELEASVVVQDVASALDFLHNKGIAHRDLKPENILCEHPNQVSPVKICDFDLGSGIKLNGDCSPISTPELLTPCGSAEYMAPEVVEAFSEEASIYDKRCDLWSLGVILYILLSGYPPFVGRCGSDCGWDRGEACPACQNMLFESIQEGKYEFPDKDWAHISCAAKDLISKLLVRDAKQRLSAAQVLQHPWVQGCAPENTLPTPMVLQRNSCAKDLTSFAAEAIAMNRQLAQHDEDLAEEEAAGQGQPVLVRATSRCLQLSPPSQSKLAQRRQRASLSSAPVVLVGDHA

MDA-MB-435 = assay: Antiproliferative activity against human MDA-MB-435 cells assessed as reduction in cell viability at 20 uM incubated for 72 hrs by MTT assay relative to control; format: functional
[14] = target: T4, MAP kinase-interacting serine/threonine-protein kinase 2; assay: Inhibition of MNK2 (unknown origin) at 100 nM incubated for 60 mins by HTRF assay
Target sequence in this assay (Q9HBH9 whole entry, looked up, the tested form may be a part): as the sequence (Q9HBH9 whole entry, the tested form may be a part) above

[15] = Antitumor activity against […] cells xenografted in BALB/c mouse assessed as tumor growth inhibition at 40 mg/kg, ip administered for 14 days relative to control; format: functional; details: 336 h, time 14 day, read-out: TGI
[16] = target: T2, MAP kinase-interacting serine/threonine-protein kinase 1; assay: as §1, with “Potency index, ratio of IC50 of eFT508 to IC50 of compound for inhibition” for “Inhibition”; details: time 50.0 min
Target sequence in this assay (Q9BUB5 whole entry, looked up): as the sequence (Q9BUB5 whole entry, looked up) above

[17] = Toxicity in BALB/c mouse xenografted with […] cells assessed as weight loss at 20 to 40 mg/kg, ip administered for 14 days; format: organism-based; details: in vivo, 336 h, dose 20-40 mg/kg, time 14 day
K562 = assay: Antiproliferative activity against human K562 cells assessed as reduction in cell viability incubated for 72 hrs by MTT assay; format: functional, cell-based; details: K562, 72 h
[18] = target: T4, MAP kinase-interacting serine/threonine-protein kinase 2; assay: Inhibition of MNK2 (unknown origin) at 500 nM relative to control
Target sequence in this assay (Q9HBH9 whole entry, looked up, the tested form may be a part): as the sequence (Q9HBH9 whole entry, the tested form may be a part) above

MV4-11 = assay: Antiproliferative activity against human MV4-11 cells assessed as reduction in cell viability incubated for 72 hrs by MTT assay; format: functional, cell-based; details: MV4-11, 72 h
[19] = target: Macrophage colony-stimulating factor 1 receptor (Homo sapiens) (UniProt P07333); assay: Inhibition of CSF1R (unknown origin) at 500 nM relative to control
[20] = target: T2, MAP kinase-interacting serine/threonine-protein kinase 1; assay: Inhibition of MNK1 (unknown origin) at 100 nM incubated for 60 mins by HTRF assay
Target sequence in this assay (Q9BUB5 whole entry, looked up): as the sequence (Q9BUB5 whole entry, looked up) above

[21] = target: T1, MAP kinase-interacting serine/threonine-protein kinase 1/2 (Homo sapiens); assay: Inhibition of MNK1/MNK2 in […] cells assessed as reduction in eIF4E phosphorylation at 1 uM incubated for 24 hrs by Western blot analysis relative to control; format: cell-based
[22] = target: T4, MAP kinase-interacting serine/threonine-protein kinase 2; assay: as §2, with “Potency index, ratio of IC50 of eFT508 to IC50 of compound for inhibition” for “Inhibition”; details: time 50.0 min
Target sequence in this assay (Q9HBH9 whole entry, looked up, the tested form may be a part): as the sequence (Q9HBH9 whole entry, the tested form may be a part) above

[23] = target: Cyclin-dependent kinase 1 (Homo sapiens) (UniProt P06493); assay: Inhibition of CDK1 (unknown origin) at 500 nM relative to control
Sequence of Cyclin-dependent kinase 1 (Homo sapiens) (P06493 whole entry, looked up): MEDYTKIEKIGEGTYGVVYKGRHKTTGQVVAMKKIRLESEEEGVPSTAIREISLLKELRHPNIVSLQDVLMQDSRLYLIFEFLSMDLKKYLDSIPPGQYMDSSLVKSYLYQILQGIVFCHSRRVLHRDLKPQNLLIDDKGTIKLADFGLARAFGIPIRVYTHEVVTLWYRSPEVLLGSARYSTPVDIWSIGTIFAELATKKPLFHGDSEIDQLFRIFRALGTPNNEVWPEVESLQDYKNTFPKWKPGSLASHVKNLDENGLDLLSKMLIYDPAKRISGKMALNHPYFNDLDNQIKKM

Sequence of Tyrosine-protein kinase JAK1 (Homo sapiens) (P23458 whole entry): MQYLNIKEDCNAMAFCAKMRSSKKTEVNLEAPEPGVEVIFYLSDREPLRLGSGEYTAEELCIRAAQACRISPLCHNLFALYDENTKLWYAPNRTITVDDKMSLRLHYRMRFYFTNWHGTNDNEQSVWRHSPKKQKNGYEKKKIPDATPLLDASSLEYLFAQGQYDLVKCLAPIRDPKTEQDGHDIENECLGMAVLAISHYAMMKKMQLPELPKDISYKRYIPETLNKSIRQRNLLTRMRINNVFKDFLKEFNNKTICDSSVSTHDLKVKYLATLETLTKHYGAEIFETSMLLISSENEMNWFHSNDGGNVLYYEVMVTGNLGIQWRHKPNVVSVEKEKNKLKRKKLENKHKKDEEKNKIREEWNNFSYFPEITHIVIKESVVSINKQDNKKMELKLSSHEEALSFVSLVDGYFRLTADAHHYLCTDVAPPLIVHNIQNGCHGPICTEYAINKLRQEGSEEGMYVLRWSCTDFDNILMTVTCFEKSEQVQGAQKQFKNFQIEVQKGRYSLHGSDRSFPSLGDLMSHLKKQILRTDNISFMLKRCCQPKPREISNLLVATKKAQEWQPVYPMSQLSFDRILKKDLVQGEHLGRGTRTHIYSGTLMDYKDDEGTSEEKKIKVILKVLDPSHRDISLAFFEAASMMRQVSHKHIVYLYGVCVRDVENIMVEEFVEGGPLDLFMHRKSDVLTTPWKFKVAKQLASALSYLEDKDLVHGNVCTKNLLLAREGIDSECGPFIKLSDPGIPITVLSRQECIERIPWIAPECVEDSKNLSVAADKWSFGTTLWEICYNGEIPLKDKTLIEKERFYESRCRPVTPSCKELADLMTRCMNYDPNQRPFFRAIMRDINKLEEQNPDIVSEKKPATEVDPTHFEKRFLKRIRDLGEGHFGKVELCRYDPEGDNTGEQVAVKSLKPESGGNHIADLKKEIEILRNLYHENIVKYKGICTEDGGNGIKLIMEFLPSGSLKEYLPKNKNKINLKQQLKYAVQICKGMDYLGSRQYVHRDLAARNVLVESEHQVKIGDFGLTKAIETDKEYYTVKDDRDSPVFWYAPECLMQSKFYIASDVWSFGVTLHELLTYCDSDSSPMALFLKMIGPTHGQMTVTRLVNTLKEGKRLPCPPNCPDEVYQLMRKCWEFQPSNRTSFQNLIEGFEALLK
Sequence of Tyrosine-protein kinase BTK (Homo sapiens) (Q06187 whole entry): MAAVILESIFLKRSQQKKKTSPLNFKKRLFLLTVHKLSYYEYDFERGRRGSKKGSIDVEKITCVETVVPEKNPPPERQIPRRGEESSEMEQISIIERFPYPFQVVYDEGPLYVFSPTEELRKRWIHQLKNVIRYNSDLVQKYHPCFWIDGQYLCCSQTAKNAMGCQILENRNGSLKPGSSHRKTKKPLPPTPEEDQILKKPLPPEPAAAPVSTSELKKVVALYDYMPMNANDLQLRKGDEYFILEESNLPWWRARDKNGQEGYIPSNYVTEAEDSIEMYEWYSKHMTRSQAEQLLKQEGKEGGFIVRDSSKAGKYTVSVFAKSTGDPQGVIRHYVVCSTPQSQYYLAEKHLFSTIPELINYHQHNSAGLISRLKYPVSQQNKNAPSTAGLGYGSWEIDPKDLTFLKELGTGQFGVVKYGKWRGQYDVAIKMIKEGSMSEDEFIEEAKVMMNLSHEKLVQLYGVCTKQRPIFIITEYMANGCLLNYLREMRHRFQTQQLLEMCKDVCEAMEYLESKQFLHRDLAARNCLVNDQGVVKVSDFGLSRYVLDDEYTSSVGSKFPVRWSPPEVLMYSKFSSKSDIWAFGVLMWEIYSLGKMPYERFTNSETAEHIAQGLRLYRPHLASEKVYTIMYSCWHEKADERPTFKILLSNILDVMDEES
Sequence of Macrophage colony-stimulating factor 1 receptor (Homo sapiens) (P07333 whole entry): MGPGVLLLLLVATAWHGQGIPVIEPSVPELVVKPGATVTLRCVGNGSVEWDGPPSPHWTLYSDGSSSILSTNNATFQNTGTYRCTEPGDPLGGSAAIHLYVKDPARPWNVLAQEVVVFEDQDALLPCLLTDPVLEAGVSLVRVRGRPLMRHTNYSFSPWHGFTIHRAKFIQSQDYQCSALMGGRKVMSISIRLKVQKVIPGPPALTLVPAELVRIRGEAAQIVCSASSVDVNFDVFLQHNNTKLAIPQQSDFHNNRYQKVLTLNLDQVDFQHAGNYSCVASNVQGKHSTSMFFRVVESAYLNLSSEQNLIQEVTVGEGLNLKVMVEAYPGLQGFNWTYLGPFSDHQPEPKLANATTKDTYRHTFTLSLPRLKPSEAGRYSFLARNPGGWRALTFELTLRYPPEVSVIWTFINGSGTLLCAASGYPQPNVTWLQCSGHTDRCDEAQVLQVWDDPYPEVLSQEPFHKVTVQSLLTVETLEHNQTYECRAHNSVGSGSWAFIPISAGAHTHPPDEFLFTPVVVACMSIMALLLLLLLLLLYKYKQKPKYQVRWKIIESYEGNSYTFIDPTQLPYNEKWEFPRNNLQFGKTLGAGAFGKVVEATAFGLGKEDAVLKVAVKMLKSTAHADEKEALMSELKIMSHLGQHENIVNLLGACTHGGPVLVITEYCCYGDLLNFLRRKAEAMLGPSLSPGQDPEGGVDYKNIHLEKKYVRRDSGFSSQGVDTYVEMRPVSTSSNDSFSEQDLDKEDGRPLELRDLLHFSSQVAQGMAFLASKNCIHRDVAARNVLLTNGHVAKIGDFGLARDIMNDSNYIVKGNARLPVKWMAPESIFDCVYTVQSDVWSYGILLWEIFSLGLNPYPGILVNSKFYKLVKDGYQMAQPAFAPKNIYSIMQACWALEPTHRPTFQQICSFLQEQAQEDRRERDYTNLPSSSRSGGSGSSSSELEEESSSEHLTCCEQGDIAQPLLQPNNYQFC

inhibition [1]: 11%
inhibition [2]: 7%
inhibition [3]: inactive
inhibition [4]: 96%
inhibition [5]: 6%
inhibition [7]: Dose-dependent effect
inhibition [8]: 9%
inhibition [9]: 3%
IC50 [11]: 7 nM
inhibition [12]: 21%
IC50 [13]: 6.1 nM
inhibition [14]: 91.2%
Ratio IC50 [16]: 2
IC50 (K562): 11700 nM
inhibition [18]: 103%
IC50 (MV4-11): 10000 nM
inhibition [19]: 6%
inhibition [20]: 76.5%
inhibition [21]: 100%
Ratio IC50 [22]: 2
inhibition [23]: 4%
Compound: Cc1cc(Nc2cc(N3CCN(CCCN(C)C)CC3)ncn2)c(=O)n2c1C(=O)NC21CCCCC1
inhibition at 20 µM (A549): 41.3%
TGI (CT26): Dose-dependent effect
IC50 (TMD8): 910 nM
inhibition at 20 µM [6]: 58.3%
inhibition at 20 µM (HCT-116): 42.9%
inhibition in vivo at 20 mg/kg [10]: 41.4%
inhibition at 20 µM (MDA-MB-435): 49%
inhibition in vivo at 40 mg/kg [15]: 60.4%
Activity [17]: Non-Toxic

Reference: ChEMBL document CHEMBL4665632, “Design, synthesis and biological evaluation of pyridone-aminal derivatives as MNK1/2 inhibitors” (Bioorg Med Chem, 2019)
